Results taken from patent publication US20040242694A1, “Remedial agent for cardiac failure” (priority 2001, published 2004).

Columns and labels:
[1] = tested on: animal test mode of ventricular failure; settings: J Pharmacol Exp Ther 291(2) 799-811 (1999); Circ Res 85(4) 364-376 (1999); cited from earlier work
[2] = tested on: Dahl's salt-sensitive rat; assay: P-V curve of removed hearts under perfuse by Langendorff's method; format: ex vivo; settings: compared with the control group; Langendorff perfusion
Method: In the above model of cardiac failure using Dahl's salt-sensitive rat, internal pressure and volume of left ventricle of hearts removed from 11, 15, and 17 weeks rats were measured under perfuse by Langendorff's method.

mice = assay: Toxicity, oral administration to mice; format: in vivo
Method: It was considered that the toxicities of the compounds in the present invention could be very low and safe to use as a medicine. For example, the lowest lethal dose in oral administration of compound (II) to mice was 2000 mg/kg.

Structure (SMILES): CC(C)[C@H](NS(=O)(=O)c1ccc(-c2ccc(Br)cc2)cc1)C(=O)O [PD166793]
- effect on animal test model of ventricular failure [1]: effective

Structure (SMILES): CCOCOC[C@H](C[C@H](C)C(=O)NO)NC(=O)c1ccc(Oc2ccccc2)cc1 [compound (II), N-hydroxy-5-ethoxymethyloxy-2(S)-methyl-4(S)-(4-phenoxybenzoyl)aminopentanamide]
- P-V curve (internal pressure and volume of left ventricle) [2]: shifts to the left side
- lowest lethal dose (mice): 2000 mg/kg
